Source: patent US7560487B2, “Use of (R)—ibuprofen methanesulfonamide and salts thereof in the treatment and prevention of rejection reactions of transplanted organs” (Dompé Pha.r.ma S.p.A., priority 2001, dated 2009)
“And” between values parts separate entries of the source, which are not always exact repeats. Identical values can stand only once.

Key:
[1] = system: IL-8; settings: in vitro; described in WO 00/24710; cited from earlier work
[2] = system: models of ischemia/reperfusion injury; assay: PMN infiltration in models of ischemia/reperfusion injury, mice; type: in vivo
[3] = system: rats receiving syngeneic kidney transplant; assay: Semi-quantitative histological score for renal damage, syngeneic transplant; type: in vivo, Lewis rats
Experimental: (§1) Adult male Lewis rats (RT11) (Charles River, Calco Italia S.p.A, Italy) were used. All animals were allowed free access to food and water. The study was performed in a syngeneic kidney transplant model using such rats as donor and graft recipients. Donor animals were anaesthetized with leptofen. The left kidney was prepared by freeing the ureter from the attachments. The renal artery was separated from the renal vein by dissection. The donor kidney and ureter were removed “en bloc” and flushed with Belzer (UW) containing 1000 U/ml of heparin. Then the kidney was placed in an iced Belzer (UW) solution for 4-6 hours (cold ischemia) until transplant. Recipients were prepared by removal of the left kidney. Animal treatment with DF 1681B is summarized below. Kidney grafts were washed with saline solution before transplant. An anastomosis was created between the recipient and the donor renal artery as well as renal vein with end-to-end anastomosis. Vascular clamps were released after 30 minutes (warm ischemia). Donor and recipient ureters were attached end-to-end. The native right kidney was then removed. Animals were placed in individual metabolic cages for measurements of daily urine output as an index of renal function recovery. After 16 and 24 hours, renal function was assessed by measuring plasma creatinine concentration. Twenty-four hours after kidney transplantation, the animals were sacrificed. The kidney graft was removed, cut in slices and put in Dubosq-Brazil solution for the analysis of conventional histology by light microscopy. Moreover, additional kidney fragments were frozen in liquid nitrogen and used for immunohistochemical analysis of inflammatory cell infiltrate (polymorphonuclear cells, MHC class II positive cells).
(§2) Group 1 (n.=3) rats recipients of a kidney graft exposed to 4 hours cold ischemia and treated with the IL-8 inhibitor DF 1681B.
(§3) Group 2 (n.=3) rats recipients of a kidney graft exposed to 4 hours cold ischemia and treated with the vehicle.
(§4) Group 3 (n.=3) rats recipients of a kidney graft exposed to 6 hours cold ischemia and treated with the IL-8 inhibitor DF 1681B.
(§5) Group 4 (n.=3) rats recipients of a kidney graft exposed to 6 hours cold ischemia and treated with the vehicle.
(§6) The recipients were pretreated the day before the experiment (15 mg/kg s.c.). The animals received an intravenous injection of DF 1681B (15 mg/kg) immediately before reperfusion of the transplanted kidney. Additional administration of the compound (15 mg/kg s.c.) was performed 2 hours after transplantation. Control animals were given vehicle at the same time points and using the same administration method as for animals treated with DF 1681B.
(§7) Data were analyzed using the non-parametric Kruskal-Wallis test for multiple comparisons or the Tukey-Cicchetti test.

[4] = system: rats receiving syngeneic kidney transplant; assay: MHC II positive interstitial cell count in transplanted kidney, syngeneic transplant; type: in vivo, Lewis rats; design: MHC II+ interstitial cells: unit not given here
Experimental: as §1, §2, §3, §4, §5, §6, §7

[5] = system: rats receiving syngeneic kidney transplant; assay: Plasma creatinine after syngeneic kidney transplant (cold ischemia/reperfusion); type: in vivo, Lewis rats; settings: for Plasma Creatinine 16 h: 16 h after transplant; for Plasma Creatinine 16 h / Plasma Creatinine 24 h: 15 mg/kg; for Plasma Creatinine 24 h: 24 h after transplant
Experimental: as §1, §2, §3, §4, §5, §6, §7

[6] = system: models of ischemia/reperfusion injury; assay: PMN infiltration in models of ischemia/reperfusion injury, rats; type: in vivo
[7] = system: rats receiving syngeneic kidney transplant; assay: Immunohistochemical granulocyte count in transplanted kidney, syngeneic transplant; type: in vivo, Lewis rats; design: Granulocytes Intravasc.: unit not given here; settings: for Granulocytes Inrterstitial / Granulocytes Intraglom / Granulocytes Intravasc. / Granulocytes Periglom. / Granulocytes Perivasc.: 24 h post-transplant
Experimental: as §1, §2, §3, §4, §5, §6, §7

[8] = system: rats receiving allogeneic kidney transplant; assay: Plasma creatinine after allogeneic kidney transplant; type: in vivo, Brown Norway rats; settings: for Plasma Creatinine 16 h / Plasma Creatinine 24 h: allogeneic, 6 h cold ischemia
Experimental: The following experimental group of animals were considered:
Group 1 (n=9) Brown Norway rats recipients of a kidney graft of Lewis rats exposed to 6 hours cold ischemia and treated with vehicle.
Group 2 (n=5) Brown Norway rats recipients of a kidney graft of Lewis rats exposed to 6 hours cold ischemia and treated with the IL-8 inhibitor DF 1681B.
The recipients were pretreated the day before the experiment (20 mg/kg s.c.). The animal received an intravenous injection of DF 1681B (20 mg/kg) immediately before reperfusion of the transplanted kidney. Additional administration of the compound (20 mg/kg s.c.) was performed 2 hours after transplantation. Control animals were given vehicle at the same time points and using the same administration method as for animals treated with DF 1681B.
as §7

[9] = system: mouse model; assay: Chemotaxis in vivo in a mouse model
[10] = 4 h cold ischemia, 24 h after transplantation, individual rats
[11] = 4 h cold ischemia, group mean ± SD
[12] = 6 h cold ischemia, 24 h after transplantation, individual rats
[13] = 6 h cold ischemia, group mean ± SD
[14] = 4 h cold ischemia, individual rats, 15 mg/kg s.c./i.v./s.c.
[15] = 6 h cold ischemia, individual rats
[16] = 4 h cold ischemia, individual rats, high-power fields (X400)
[17] = 6 h cold ischemia, individual rats, high-power fields (X400)
[18] = individual Brown Norway rats, 20 mg/kg s.c./i.v./s.c.

Which “Inhibition of the chemotaxis of neutrophils induced by IL-8” value [1] does the source give for `CC(C)Cc1ccc([C@@H](C)C(=O)NS(C)(=O)=O)cc1` [(R)-ibuprofen methanesulfonamide, R(−)-N-[2-(4-Isobutylphenyl)propionyl]-methanesulfonamide] here?
The value was “selective in vitro inhibitors”.

What does the source list for `CC(C)Cc1ccc([C@@H](C)C(=O)NS(C)(=O)=O)cc1.NCCCC[C@H](N)C(=O)O` [DF1681B, R(−)-N-[2-(4-Isobutylphenyl)propionyl]-methanesulfonamide salt of L(+)-lysine]?
Inhibition of the chemotaxis of neutrophils induced by IL-8 [1]: selective in vitro inhibitors; Inhibition of PMN infiltration [2]: inhibit PMN infiltration; Histological damage Glomerular (score) [3, 10]: 0 score; Histological damage Interstitial (score) [3, 10]: 2.5 score and 2 score (2×); Histological damage Tubular (score) [3, 10]: 1.5 score and 0.7 score and 0.5 score; Histological damage Glomerular (score) [3, 11]: 0 score; Histological damage Interstitial (score) [3, 11]: 2 ± 0.3 score; Histological damage Tubular (score) [3, 11]: 0.7 ± 0.6 score; Tubular changes, effect in words ([3]; 4 hour ischemia): attenuated but did not normalize tubular changes; Histological damage Glomerular (score) [3, 12]: 0 score; Histological damage Interstitial (score) [3, 12]: 3 score; Histological damage Tubular (score) [3, 12]: 1.7 score (2×) and 1.2 score; Histological damage Glomerular (score) [3, 13]: 0 score; Histological damage Interstitial (score) [3, 13]: 3 score; Histological damage Tubular (score) [3, 13]: 1.5 ± 0.3 score; Focal ischemic changes in the glomeruli, effect in words ([3]; 6 hour ischemia): prevented; Number of MHC class II cells, effect in words ([4]; 4 and 6 hour ischemia): not affected; MHC II+ interstitial cells [4, 11]: 8.7 ± 3.4; MHC II+ interstitial cells ([4]; 4 h cold ischemia, individual rats, high-power fields (×400)): 5.1 ± 6.2 and 9.1 ± 2 and 11.9 ± 6.3; MHC II+ interstitial cells [4, 13]: 14.4 ± 4.7; MHC II+ interstitial cells ([4]; 6 h cold ischemia, individual rats, high-power fields (×400)): 10.5 ± 4.7 and 13.1 ± 7 and 19.7 ± 3.3; Plasma Creatinine 16 h [5, 11]: 0.91 ± 0.18° mg/dl; Plasma Creatinine 16 h [5, 14]: 1.09 mg/dL and 0.74 mg/dL and 0.89 mg/dL; Plasma Creatinine 24 h [5, 11]: 0.78 ± 0.19° mg/dl; Plasma Creatinine 24 h [5, 14]: 0.99 mg/dL and 0.64 mg/dL and 0.71 mg/dL; Renal function (plasma creatinine), effect in words ([5]; 4 h ischemic kidneys): protected animals from renal function deterioration; Plasma Creatinine 16 h [5, 13]: 2.23 ± 0.36*Δ mg/dl; Plasma Creatinine 16 h [5, 15]: 2.32 mg/dL and 2.54 mg/dL and 1.84 mg/dL; Plasma Creatinine 24 h [5, 13]: 1.83 ± 0.09 mg/dL; Plasma Creatinine 24 h [5, 15]: 1.89 mg/dL and 1.87 mg/dL and 1.72 mg/dL; Plasma creatinine concentrations, effect in words ([5]; 6 hours ischemia): significantly reduced plasma creatinine concentrations; Inhibition of PMN infiltration [6]: inhibit PMN infiltration; Granulocytes Inrterstitial [7, 11]: 12.1 ± 3.7; Granulocytes Intraglom [7, 11]: 9.5 ± 3.9; Granulocytes Intravasc. [7, 11]: 3.2 ± 4.3; Granulocytes Periglom. [7, 11]: 5.4 ± 1.5; Granulocytes Perivasc. [7, 11]: 5.4 ± 2.5; Granulocytes Inrterstitial [7, 16]: 9.1 ± 6.4 and 11 ± 4.8 and 16.2 ± 8.3; Granulocytes Intraglom [7, 16]: 7.4 ± 4.7 and 14 ± 15.4 and 7 ± 2.9; Granulocytes Intravasc. [7, 16]: 1.5 ± 2.4 and 0 and 8 ± 5.3; Granulocytes Periglom. [7, 16]: 5.3 ± 4.5 and 4 and 7 ± 8; Granulocytes Perivasc. [7, 16]: 3 ± 0.8 and 8 ± 2.6 and 5.3 ± 4.6; Granulocyte count in the intraglomerular area, effect in words ([7]; 4 hour cold ischemia): numerically but not significantly lowered; PMN infiltrate, effect in words ([7]; 4 hour cold ischemia): decreases the PMN infiltrate; Granulocytes Inrterstitial [7, 13]: 3 ± 1.7 cells per high-power field; Granulocytes Intraglom [7, 13]: 5.5 ± 2 cells per high-power field; Granulocytes Intravasc. [7, 13]: 1.1 ± 1.7; Granulocytes Periglom. [7, 13]: 2.1 ± 1.1; Granulocytes Perivasc. [7, 13]: 4.1 ± 2.9; Granulocytes Inrterstitial [7, 17]: 2.5 ± 4.6 and 4.8 ± 5.6 and 1.6 ± 1.2; Granulocytes Intraglom [7, 17]: 5.0 ± 6.0 and 3.7 ± 3.0 and 7.7 ± 6.5; Granulocytes Intravasc. [7, 17]: 0.2 ± 0.4 and 0 and 3.0 ± 4.0; Granulocytes Periglom. [7, 17]: 1.0 ± 1.8 and 3.2 ± 1.9 and 2.2 ± 1.2; Granulocytes Perivasc. [7, 17]: 1.0 ± 1.3 and 6.8 ± 8.9 and 4.5 ± 4.4; Interstitial inflammatory cells, effect in words ([7]; 6 hour ischemia, p<0.01): significantly lowered; Serum creatinine levels, effect in words ([8]; allogeneic transplant, 20 mg/kg, 16 and 24 hours): significant prevention of increased serum creatinine levels; Plasma Creatinine 16 h [8, 18]: 1.05 mg/dL and 1.2 mg/dL and 1 mg/dL and 0.84 mg/dL and 1.01 mg/dL; Plasma Creatinine 24 h [8, 18]: 1.3 mg/dL and 1.39 mg/dL and 0.87 mg/dL and 0.69 mg/dL and 0.85 mg/dL; Plasma Creatinine 16 h ([8]; group mean, 20 mg/kg): 1.02 mg/dL; Plasma Creatinine 24 h ([8]; group mean, 20 mg/kg): 1.02 mg/dL; Inhibition of chemotaxis in vivo [9]: inhibit chemotaxis in vivo
